Experimental data as given in paper PMC7891606 (Clinical Pharmacology in Drug Development, 2020).
Entries after “also recorded” stand apart in the source; their conditions may differ. Where two headings read alike, the source gives them in different places.

Tests used:
[1] = after metabolism by peripheral AADC and COMT; cited from earlier work
clinical = details: male, human, in vivo, po, 100 mg
[2] = period 1, before opicapone
Safety and tolerability = type: in vivo, healthy Japanese adult males; details: for Tolerability: opicapone tablets 5 to 50 mg once daily for 11 days
[3] = previous pharmacokinetic study; cited from earlier work
[4] = Effect of opicapone on plasma L‐dopa and 3‐OMD exposure; type: in vivo, healthy Japanese adult males
[5] = opicapone 50 mg, period 2, N 20
[6] = opicapone 50 mg, period 3, N 19

## N[C@@H](Cc1ccc(O)c(O)c1)C(=O)O [L‐dopa, levodopa]
[1]
  Bioavailable dose in the brain: approximately 1 % of the ingested dose
clinical
  Cmax: 1950 ± 581 ng/mL
  Tmax: 30 min
[2]; opicapone 5 mg cohort (A), first dose of L-dopa/carbidopa
  tmax in plasma (median (min-max)): 0.50 (0.50‐2.00) h
[2]; opicapone 10 mg cohort (B), second dose of L-dopa/carbidopa
  tmax in plasma (median (min-max)): 0.50 (0.50‐2.00) h
[2]; opicapone 50 mg cohort (D), first dose of L-dopa/carbidopa
  tmax in plasma (median (min-max)): 0.50 (0.50‐2.00) h

## Cc1c(Cl)c(C)[n+]([O-])c(Cl)c1-c1noc(-c2cc(O)c(O)c([N+](=O)[O-])c2)n1 [Opicapone, opicapone]
Safety and tolerability; opicapone 5 mg, period 3, N 20
  Number (%) of Subjects Reporting Adverse Event: Diarrhea: 1 (5.0) Number (%) of Subjects
Safety and tolerability; opicapone 25 mg, period 3, N 20
  Number (%) of Subjects Reporting Adverse Event: Nausea: 3 (15.0) Number (%) of Subjects
Safety and tolerability; opicapone 50 mg cohort
  Subjects who stopped treatment due to adverse event (infectious enteritis): 1 subject
Safety and tolerability; opicapone 50 mg, period 2 (opicapone once daily 11 days), N 20
  Number (%) of Subjects Reporting Adverse Event: All: 2 (10.0) Number (%) of Subjects
Safety and tolerability; [5]
  Number (%) of Subjects Reporting Adverse Event: Enteritis, infectious: 1 (5.0) Number (%) of Subjects
  Number (%) of Subjects Reporting Adverse Event: Pharyngitis: 1 (5.0) Number (%) of Subjects
Safety and tolerability; [6]
  Number (%) of Subjects Reporting Adverse Event: Nausea: 5 (26.3) Number (%) of Subjects
  Number (%) of Subjects Reporting Adverse Event: Vomiting: 3 (15.8) Number (%) of Subjects
Safety and tolerability
  Tolerability: well tolerated; also recorded: well tolerated with no safety issues
Safety and tolerability; listed as opicapone
  Tolerability: well tolerated at all doses with no major safety issues
Safety and tolerability; period 2
  Causal relationship of adverse events to opicapone or L‐dopa/carbidopa: no adverse events reported in period 2 were thought to be related
Safety and tolerability; period 3
  Causal relationship of adverse events to opicapone or L‐dopa/carbidopa: at least possibly related
[3]
  Increase of L‐dopa trough levels and extent of exposure compared with entacapone: superior response to entacopone
[4]; especially at the highest opicapone doses
  Change of Cmax and AUC of 3‐OMD following opicapone administration: decreased notably
[4]; opicapone 5-50 mg, plateau at 25 mg and higher
  Change of AUC of L‐dopa with increasing opicapone dose: increased with increasing opicapone dose; also recorded: tended to increase with increasing opicapone dose; also recorded: plateau in the increase in L‐dopa exposure
